The source of these data is patent US20190343782A1, “METHODS OF TREATING LIVER TOXICITY AND DISORDERS” (Yeda Research and Development Co. Ltd., priority 2016, published 2019).

The series can be described thus: APAP-induced hepatotoxicity: liver enzyme release and liver histology. The series is classed as in vivo. Conditions: control mice; APAP 500 mg/kg intraperitoneally at ZT0 versus ZT12; analyzed 10 hours after injection.

Experimental: Mice: C57B1/6 mice were purchased from Harlan and allowed to acclimatize to the animal facility environment for 2 weeks before used for experimentation. […] In all experiments, age- and gender-matched mice were used. Mice were 8-9 weeks of age at the beginning of experiments. All mice were kept at a strict 24-hour light-dark cycle, with lights being turn on from 6 am to 6 pm. […] Acetaminophen was administered intraperitoneally at a concentration of 500 mg/kg at either ZT0 or ZT12, and mice were analyzed 10 hours after injection. All antibiotics as well as acetaminophen were obtained from Sigma Aldrich.
Histology: Sections from the left lobe of the liver were fixed in paraformaldehyde and embedded in paraffin for staining with H&E. Subsequently, sections were examined by a blinded veterinary pathologist and scored for necrosis and hemorrhage on a scale from 0 (healthy) to 3 (most severe).
Statistical analysis: Data are expressed as mean ±SEM. […] Unless stated otherwise, elements with p<0.05 and q<0.1 were considered significant. For metabolites, q<0.2 was considered significant. For two-group comparisons, Mann-Whitney U-test was used and comparisons with p<0.05 were considered significant.

Regarding `CC(=O)Nc1ccc(O)cc1` [APAP, acetaminophen], the “APAP-induced hepatotoxicity (liver enzyme release, liver histology)” value is “dramatically exacerbated liver toxicity when APAP was injected at ZT12 as compared to ZTO”.
